The text below walks through data of US20230365592A1 (Agios Pharmaceuticals, Inc., priority 2022, published 2023).

The target in the assay is T1, human PAH with the R408W mutation (Homo sapiens, UniProt P00439, R408W).
T1 construct: expressed in transfected cells
T1 sequence (P00439 1-452 R408W): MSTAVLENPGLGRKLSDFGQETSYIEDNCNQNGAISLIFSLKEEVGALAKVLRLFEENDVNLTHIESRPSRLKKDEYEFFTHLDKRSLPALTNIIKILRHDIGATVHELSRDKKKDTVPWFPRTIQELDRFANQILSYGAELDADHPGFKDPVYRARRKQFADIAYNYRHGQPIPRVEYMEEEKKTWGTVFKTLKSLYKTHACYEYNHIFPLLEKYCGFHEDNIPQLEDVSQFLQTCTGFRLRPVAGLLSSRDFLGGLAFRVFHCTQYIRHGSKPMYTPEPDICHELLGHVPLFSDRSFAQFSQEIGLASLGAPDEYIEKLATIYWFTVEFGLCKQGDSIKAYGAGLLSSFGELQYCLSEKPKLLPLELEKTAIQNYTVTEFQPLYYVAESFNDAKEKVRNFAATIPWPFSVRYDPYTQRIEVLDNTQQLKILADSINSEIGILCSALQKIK
Put plainly: Cell Based Phenylalanine Flux Assay.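 Further: after compound treatment, cells received sepiapterin plus isotope-labelled Phenylalanine for 4 hours, then labelled Tyrosine in the medium was quantified, 10-point 2-fold dilution series run in duplicate.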 The settings on record: A375 cells expressing human R408W PAH; 24 hrs compound incubation; 13C-Tyrosine by LC-MS; average where tested multiple times; read-out: AC50.

Some results are limits rather than exact numbers.

Regarding `Cc1nc([C@H](C)O)oc1C(=O)N1CCc2[nH]cnc2[C@H]1c1cc2c(Cl)cccn2n1` [Example 708, ((S)-4-(4-chloropyrazolo[1,5-a]pyridin-2-yl)-6,7-dihydro-1H-imidazo[4,5-c]pyridin-5(4H)-yl)(2((S)-1-hydroxyethyl)-4-methyloxazol-5-yl)methanone], the AC50 is less than 500 nM.

Take `C[C@@H](O)c1nc(C(F)F)c(C(=O)N2CCc3[nH]cnc3[C@H]2c2cc3c(F)cccn3n2)o1` [Example 710, (4-(difluoromethyl)-2-((R)-1-hydroxyethyl)oxazol-5-yl)((s)-4-(4-fluoropyrazolo[1,5-a]pyridin-2-yl)-6,7-dihydro-1H-imidazo[4,5-c]pyridin-5(4H)-yl)methanone]: the AC50 was less than 500 nM.

With `CC(C)(O)c1nc(C(F)F)c(C(=O)N2CCc3[nH]cnc3[C@H]2c2cc3c(F)cccn3n2)o1` [Example 714, (S)-(4-(difluoromethyl)-2-(2-hydroxypropan-2-yl)oxazol-5-yl)(4-(4-fluoropyrazolo[1,5-a]pyridin-2-yl)-6,7-dihydro-1H-imidazo[4,5-c]pyridin-5(4H)-yl)methanone], the AC50 is less than 500 nM.

Consider `CC(C)(O)c1nc(C(F)F)c(C(=O)N2CCc3[nH]cnc3[C@@H]2c2cc3c(F)cccn3n2)o1` [Example 715, (R)-(4-(difluoromethyl)-2-(2-hydroxypropan-2-yl)oxazol-5-yl)(4-(4-fluoropyrazolo[1,5-a]pyridin-2-yl)-6,7-dihydro-1H-imidazo[4,5-c]pyridin-5(4H)-yl)methanone], for which the AC50 was more than 5000 nM.

As to `O=C(c1ccnn1C(F)(F)F)N1CCc2[nH]cnc2[C@H]1c1cc2ccccn2n1` [Example 716, (S)-(4-(pyrazolo[1,5-a]pyridin-2-yl)-6,7-dihydro-1H-imidazo[4,5-c]pyridin-5(4H)-yl)(1-(trifluoromethyl)-1H-pyrazol-5-yl)methanone], the AC50 was less than 500 nM.

As to `O=C(c1ccnn1C(F)(F)F)N1CCc2[nH]cnc2[C@@H]1c1cc2ccccn2n1` [Example 717, (R)-(4-(pyrazolo[1,5-a]pyridin-2-yl)-6,7-dihydro-1H-imidazo[4,5-c]pyridin-5(4H)-yl)(1-(trifluoromethyl)-1H-pyrazol-5-yl)methanone], the AC50 lay within 500 to 1000 nM.

With `Cn1ccc(-c2nnc(C(=O)N3CCc4[nH]cnc4[C@H]3c3cc4c(Cl)cccn4n3)o2)n1` [Example 718, (S)-(4-(4-chloropyrazolo[1,5-a]pyridin-2-yl)-6,7-dihydro-1H-imidazo[4,5-c]pyridin-5(4H)-yl)(5-(1-methyl-1H-pyrazol-3-yl)-1,3,4-oxadiazol-2-yl)methanone], the half-maximal activity concentration (AC50) was less than 500 nM.

In the case of `Cn1ccc(-c2nnc(C(=O)N3CCc4[nH]cnc4[C@@H]3c3cc4c(Cl)cccn4n3)o2)n1` [Example 719, (R)-(4-(4-chloropyrazolo[1,5-a]pyridin-2-yl)-6,7-dihydro-1H-imidazo[4,5-c]pyridin-5(4H)-yl)(5-(1-methyl-1H-pyrazol-3-yl)-1,3,4-oxadiazol-2-yl)methanone], the concentration at half-maximal activity (AC50) is more than 5000 nM.

Take `CC(C)(O)c1nc(Cl)c(C(=O)N2CCc3[nH]cnc3[C@H]2c2cc3c(Cl)cccn3n2)o1` [Example 720, (S)-(4-chloro-2-(2-hydroxypropan-2-yl)oxazol-5-yl)(4-(4-chloropyrazolo[1,5-a]pyridin-2-yl)-6,7-dihydro-1H-imidazo[4,5-c]pyridin-5(4H)-yl)methanone]: the concentration at half-maximal activity (AC50) is less than 500 nM.

Regarding `CC(C)(O)c1nc(Cl)c(C(=O)N2CCc3[nH]cnc3[C@@H]2c2cc3c(Cl)cccn3n2)o1` [Example 721, (R)-(4-chloro-2-(2-hydroxypropan-2-yl)oxazol-5-yl)(4-(4-chloropyrazolo[1,5-a]pyridin-2-yl)-6,7-dihydro-1H-imidazo[4,5-c]pyridin-5(4H)-yl)methanone], the AC50 was more than 5000 nM.

For the compound `CC(C)(O)c1nc(Br)c(C(=O)N2CCc3[nH]cnc3[C@H]2c2cc3c(Cl)cccn3n2)o1` [Example 722, (S)-(4-bromo-2-(2-hydroxypropan-2-yl)oxazol-5-yl)(4-(4-chloropyrazolo[1,5-a]pyridin-2-yl)-6,7-dihydro-1H-imidazo[4,5-c]pyridin-5(4H)-yl)methanone], the AC50 was less than 500 nM.

Consider `CC(C)(O)c1nc(Br)c(C(=O)N2CCc3[nH]cnc3[C@@H]2c2cc3c(Cl)cccn3n2)o1` [Example 723, (R)-(4-bromo-2-(2-hydroxypropan-2-yl)oxazol-5-yl)(4-(4-chloropyrazolo[1,5-a]pyridin-2-yl)-6,7-dihydro-1H-imidazo[4,5-c]pyridin-5(4H)-yl)methanone], for which the half-maximal activity concentration (AC50) lay in the range of 1000 to 5000 nM.

Regarding `Cc1nc(C(C)(C)O)oc1C(=O)N1CCc2[nH]cnc2[C@H]1c1cc2c(Cl)cccn2n1` [Example 724, (S)-(4-(4-chloropyrazolo[1,5-a]pyridin-2-yl)-6,7-dihydro-1H-imidazo[4,5-c]pyridin-5(4H)-yl)(2-(2-hydroxypropan-2-yl)-4-methyloxazol-5-yl)methanone], the AC50 was less than 500 nM.

Turning to `Cc1nc(C(C)(C)O)oc1C(=O)N1CCc2[nH]cnc2[C@@H]1c1cc2c(Cl)cccn2n1` [Example 725, (R)-(4-(4-chloropyrazolo[1,5-a]pyridin-2-yl)-6,7-dihydro-1H-imidazo[4,5-c]pyridin-5(4H)-yl)(2-(2-hydroxypropan-2-yl)-4-methyloxazol-5-yl)methanone], the half-maximal activity concentration (AC50) is more than 5000 nM.

For the compound `Cc1nc([C@@H](C)O)oc1C(=O)N1CCc2[nH]cnc2[C@H]1c1cc2c(F)cccn2n1` [Example 726, ((S)-4-(4-fluoropyrazolo[1,5-a]pyridin-2-yl)-6,7-dihydro-1H-imidazo[4,5-c]pyridin-5(4H)-yl)(2-((R)-1-hydroxyethyl)-4-methyloxazol-5-yl)methanone], the AC50 was in the range of 500 to 1000 nM.

For `Cc1nc([C@@H](C)O)oc1C(=O)N1CCc2[nH]cnc2[C@@H]1c1cc2c(F)cccn2n1` [Example 727, ((R)-4-(4-fluoropyrazolo[1,5-a]pyridin-2-yl)-6,7-dihydro-1H-imidazo[4,5-c]pyridin-5(4H)-yl)(2-((R)-1-hydroxyethyl)-4-methyloxazol-5-yl)methanone], the AC50 was 1000 to 5000 nM.

Regarding `Cn1cc(-c2nnc(C(=O)N3CCc4[nH]cnc4[C@H]3c3cc4c(F)cccn4n3)o2)cn1` [Example 728, (S)-(4-(4-fluoropyrazolo[1,5-a]pyridin-2-yl)-6,7-dihydro-1H-imidazo[4,5-c]pyridin-5(4H)-yl)(5-(1-methyl-1H-pyrazol-4-yl)-1,3,4-oxadiazol-2-yl)methanone], the AC50 is less than 500 nM.

As to `Cn1ccc(-c2nnc(C(=O)N3CCc4[nH]cnc4[C@@H]3c3cc4c(F)cccn4n3)o2)n1` [Example 731, (R)-(4-(4-fluoropyrazolo[1,5-a]pyridin-2-yl)-6,7-dihydro-1H-imidazo[4,5-c]pyridin-5(4H)-yl)(5-(1-methyl-1H-pyrazol-3-yl)-1,3,4-oxadiazol-2-yl)methanone], the AC50 is more than 5000 nM.

As for `O=C(c1nnc(-c2ccccn2)o1)N1CCc2[nH]cnc2[C@H]1c1cc2c(F)cccn2n1` [Example 733, (S)-(4-(4-fluoropyrazolo[1,5-a]pyridin-2-yl)-6,7-dihydro-1H-imidazo[4,5-c]pyridin-5(4H)-yl)(5-(pyridin-2-yl)-1,3,4-oxadiazol-2-yl)methanone], the AC50 was less than 500 nM.
